“Also recorded” adds a separate entry of the source. Read-outs that look alike come from different tables or passages of the source.
What was measured:
BChE [1] = target: T1, BChE (Homo sapiens, UniProt P06276); assay: BChE inhibition, modified Ellman method; assay type: biochemical; details: for inhibition at 50 µM: read-out: BChE % inhibition at 50 µM; for BChE inhibition, outcome in words: 50 µM screening
Description: (§1) Cholinesterase inhibitory activities of all analogs were evaluated spectrometrically using the modified Ellman method as previously reported. […] The absorbance of each well was measured at 415 nm using a microplate reader. IC50 and inhibition values were calculated with the software GraphPad Prism as the mean of three independent experiments and expressed as mean ± SEM[42],[43].

AChE [2] = target: T2, AChE (Homo sapiens, UniProt P22303); assay: biochemical; details: for inhibition at 50 µM: read-out: AChE % inhibition at 50 µM
Description: as §1

BChE [3] = target: T1, BChE; assay: Enzyme kinetic study against BChE (Lineweaver–Burk); assay type: biochemical
Description: (§2) A Lineweaver–Burk plot was generated to identify the type of inhibition and the Michaelis–Menten constant (Km) value was determined from plot between reciprocal of the substrate concentration (1/[S]) and reciprocal of enzyme rate (1/V) over the various inhibitor concentrations[44],[45].

AChE [4] = target: T2, AChE; assay: Enzyme kinetic study against AChE (Lineweaver–Burk); assay type: biochemical
Description: To investigate the type of inhibition of AChE and BChE, kinetic studies of 3m were conducted using various concentrations of ATCI or BTCI as a substrate.
as §2

hBChE = tested on: hBChE; parameters: method as in PMID 23078965; details: previously reported; cited from earlier work
hAChE = tested on: hAChE; parameters: method as in PMID 23078965; details: previously reported; cited from earlier work
BChE [5] = target: T1, BChE; parameters: method as in doi:10.5530/ijper.52.4.75; details: previously reported; unit inferred; cited from earlier work
AChE [6] = target: T2, AChE; parameters: method as in doi:10.5530/ijper.52.4.75; details: previously reported; unit inferred; cited from earlier work

T2 sequence (P22303 32-614): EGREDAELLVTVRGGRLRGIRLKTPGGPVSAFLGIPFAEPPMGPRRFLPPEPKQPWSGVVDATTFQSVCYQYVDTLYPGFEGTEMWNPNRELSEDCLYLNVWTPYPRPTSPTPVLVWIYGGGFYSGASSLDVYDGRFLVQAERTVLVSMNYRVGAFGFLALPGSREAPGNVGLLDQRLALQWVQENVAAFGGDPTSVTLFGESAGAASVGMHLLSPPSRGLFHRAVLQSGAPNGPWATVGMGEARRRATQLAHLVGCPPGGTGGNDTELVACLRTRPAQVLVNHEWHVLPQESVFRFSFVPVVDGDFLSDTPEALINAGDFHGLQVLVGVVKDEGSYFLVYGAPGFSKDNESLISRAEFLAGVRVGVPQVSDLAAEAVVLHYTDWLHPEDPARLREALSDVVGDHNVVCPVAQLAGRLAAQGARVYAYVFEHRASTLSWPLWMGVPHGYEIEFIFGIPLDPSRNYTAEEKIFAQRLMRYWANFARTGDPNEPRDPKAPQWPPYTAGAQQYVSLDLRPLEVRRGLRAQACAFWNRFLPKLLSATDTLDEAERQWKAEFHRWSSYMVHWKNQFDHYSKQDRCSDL
T1 sequence (P06276 29-602, species assumed): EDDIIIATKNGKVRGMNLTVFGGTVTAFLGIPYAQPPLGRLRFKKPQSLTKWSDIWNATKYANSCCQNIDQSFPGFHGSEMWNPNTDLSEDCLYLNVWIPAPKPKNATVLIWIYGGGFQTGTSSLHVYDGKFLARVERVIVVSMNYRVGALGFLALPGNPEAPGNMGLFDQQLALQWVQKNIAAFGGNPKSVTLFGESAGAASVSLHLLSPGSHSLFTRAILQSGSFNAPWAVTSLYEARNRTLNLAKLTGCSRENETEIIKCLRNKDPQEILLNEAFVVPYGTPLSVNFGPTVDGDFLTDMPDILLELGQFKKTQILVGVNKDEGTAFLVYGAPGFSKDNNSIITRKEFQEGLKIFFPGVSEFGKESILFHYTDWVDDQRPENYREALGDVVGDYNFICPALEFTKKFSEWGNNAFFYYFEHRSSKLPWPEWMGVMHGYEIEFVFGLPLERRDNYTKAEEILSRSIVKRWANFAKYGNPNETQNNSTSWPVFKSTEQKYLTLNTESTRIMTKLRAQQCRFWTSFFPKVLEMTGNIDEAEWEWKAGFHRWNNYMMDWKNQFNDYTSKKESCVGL

Row | Compound | inhibition at 50 µM (BChE [1]; 50 µM, mean ± S.E) [%] | inhibition at 50 µM (AChE [2]; 50 µM, mean ± S.E) [%] | also measured
1 | COc1ccc(Nc2ncc(-c3ccccc3)cc2[N+](=O)[O-])cc1 [3a, N-(4-Methoxyphenyl)-3-nitro-5-phenylpyridin-2-amine] | 22.1 ± 0.33 | 28.1 ± 3.93 | 
2 | Cc1ccc(Nc2ncc(-c3ccc(F)cc3)cc2[N+](=O)[O-])cc1 [3d, 5-(4-Fluorophenyl)-3-nitro-N-(p-tolyl)pyridin-2-amine] | 46.4 ± 2.42 | 39.4 ± 1.56 | 
3 | Cc1ccc(Nc2ncc(-c3ccc(Br)cc3)cc2[N+](=O)[O-])cc1 [3l, 5-(4-Bromophenyl)-3-nitro-N-(p-tolyl)pyridin-2-amine] | 6.96 ± 0.74 | 24.9 ± 5.01 | 
4 | COc1ccc(Nc2ncc(-c3ccc(Br)cc3)cc2[N+](=O)[O-])cc1 [3j, 5-(4-Bromophenyl)-N-(4-methoxyphenyl)-3-nitropyridin-2-amine] | 46.1 ± 0.92 | 38.8 ± 3.27 | 
5 | CC(C)(C)c1cc[n+](-c2cnc(Nc3ccc(Cl)cc3)c([N+](=O)[O-])c2)cc1.[O-][Cl+3]([O-])([O-])[O-] [3m, 4-(Tert-butyl)-6ʹ-((4-chlorophenyl)amino)-5'-nitro-[1,3'-bipyridin]-1-ium perchlorate] |  |  | IC50 (BChE [1]): 20.7 ± 1.01 µM; selectivity ratio for BChE over AChE (BChE [1]): 1.686; inhibition at 50 µM (BChE [1]): 76.7 ± 6.01%; IC50 (AChE [2]): 34.8 ± 3.71 µM; inhibition at 50 µM (AChE [2]): 74.3 ± 5.86%; type of inhibition, BChE (BChE [3]; Lineweaver–Burk plot): mixed type of inhibition; also recorded: mix-type inhibition; Kis, BChE (BChE [3]; plot of 1/Vmax vs inhibitor concentration, substrate BTCI): 46.27 µM; Ki (BChE [3]; plot of slope vs inhibitor concentration, substrate BTCI): 17.5 µM; type of inhibition, AChE (AChE [4]; Lineweaver–Burk plot): mixed inhibition; also recorded: mix-type inhibition; Ki (AChE [4]; secondary plot of Lineweaver–Burk data, substrate ATCI, read-out: inhibition constant (Ki), AChE): 8.92 µM
6 | Cc1ccccc1Nc1ncc(-c2ccc(Cl)cc2)cc1[N+](=O)[O-] [3h, 5-(4-Chlorophenyl)-3-nitro-N-(o-tolyl)pyridin-2-amine] | 14.6 ± 1.95 | 23.1 ± 8.61 | 
7 | O=[N+]([O-])c1cc(-c2ccc(Br)cc2)cnc1Nc1ccc(Cl)cc1 [3k, 5-(4-Bromophenyl)-N-(4-chlorophenyl)-3-nitropyridin-2-amine] | 12.8 ± 1.7 | 27.8 ± 1.75 | 
8 | N#Cc1cc(C#N)c(NCCCC2CCN(Cc3ccccc3)CC2)nc1N [A] |  |  | IC50 (hBChE): 6.6 ± 0.7 µM; IC50 (hAChE): 0.0094 ± 0.0004 µM; selectivity against hAChE than hBChE (hAChE): 703 fold
9 | O=[N+]([O-])c1cc(-c2ccc(Cl)cc2)cnc1Nc1ccc(Cl)cc1 [3g, N,5-Bis(4-chlorophenyl)-3-nitropyridin-2-amine] | 12.3 ± 0.99 | 17.8 ± 2.74 | 
10 | Cc1ccccc1Nc1ncc(-c2cccc3ccccc23)cc1[N+](=O)[O-] [3n, 5-(Naphthalen-1-yl)-3-nitro-N-(o-tolyl)pyridin-2-amine] | 38.9 ± 2.97 | 40.7 ± 2.6 | 
11 | O=[N+]([O-])c1cc(-c2cccc3ccccc23)cnc1Nc1cccc2ccccc12 [3q, N,5-Di(naphthalen-1-yl)-3-nitropyridin-2-amine] | 53.07 ± 0.42 | 34 ± 2.39 | 
12 | O=[N+]([O-])c1cc(-c2ccc(F)cc2)cnc1Nc1ccc(Cl)cc1 [3e, N-(4-Chlorophenyl)-5-(4-fluorophenyl)-3-nitropyridin-2-amine] | 19.6 ± 1.49 | 19.3 ± 3.3 | BChE inhibition, outcome in words (BChE [1]): almost inactive
13 | O=C(N/N=C(/c1ccc(O)cc1)c1cccc(O)c1)Nc1ccncc1 [B] |  |  | IC50 (BChE [5]): 6.44 ± 0.65 µM; IC50 (AChE [6]): 5.58 ± 0.016 µM
14 | Cc1ccc(Nc2ncc(-c3cccc4ccccc34)cc2[N+](=O)[O-])cc1 [3o, 5-(Naphthalen-1-yl)-3-nitro-N-(p-tolyl)pyridin-2-amine] | 22.8 ± 2.7 | 35.6 ± 4.63 | 
15 | COc1ccc(Nc2ncc(-c3ccc(Cl)cc3)cc2[N+](=O)[O-])cc1 [3f, 5-(4-Chlorophenyl)-N-(4-methoxyphenyl)-3-nitropyridin-2-amine] | 31.7 ± 1.1 | 33 ± 1.86 | 
16 | COc1ccc(Nc2ncc(-c3ccc(F)cc3)cc2[N+](=O)[O-])cc1 [3c, 5-(4-Fluorophenyl)-N-(4-methoxyphenyl)-3-nitropyridin-2-amine] | 3.4 ± 1.63 | 10.7 ± 2.31 | BChE inhibition, outcome in words (BChE [1]): almost inactive
17 | O=[N+]([O-])c1cc(-c2cccc3ccccc23)cnc1Nc1ccc(Cl)cc1 [3p, N-(4-Chlorophenyl)-5-(naphthalen-1-yl)-3-nitropyridin-2-amine] | 11.7 ± 0.12 | 21.4 ± 1.86 | 
18 | O=[N+]([O-])c1cc(-c2ccc(Cl)cc2)cnc1Nc1cccc2ccccc12 [3i, 5-(4-Chlorophenyl)-N-(naphthalen-1-yl)-3-nitropyridin-2-amine] | 35.3 ± 5.14 | 39.7 ± 1.67 | 
19 | O=[N+]([O-])c1cc(-c2ccccc2)cnc1Nc1ccc(Cl)cc1 [3b, N-(4-Chlorophenyl)-3-nitro-5-phenylpyridin-2-amine] | 27.5 ± 1.92 | 59.9 ± 11 | 

— article PMC11178820, “Synthesis of novel aryl-substituted 2-aminopyridine derivatives by the cascade reaction of 1,1-enediamines with vinamidinium salts to develop novel anti-Alzheimer agents” (Scientific Reports, 2024)
